Consider two compounds from patent US6110481A, “Controlled release device based on aqueous-organic partitioning in porous membranes” (Trustees of the Stevens Institute of Technology, priority 1994, dated 2000).

The conditions of data set [1]: glassy hydrogel matrix, solvent activation system; cited from earlier work.
Data set [2] in a line: Distribution coefficient of benzoic acid between decanol and water. It is filed as physicochemical. From the text: Analytical solutions for non-coated, wetted fibers and for non-coated, non-wetted fibers were developed to predict the aqueous phase benzoic acid concentration as a function of time for nylon fibers as well as Celgard® X-20 […] and 400 μm I.D. fibers, both wetted and non-wetted. Predicted results were compared with experimental data (for wetted fibers only) in FIGS. 1, 2 and 3 for Celgard® X-20 240 μm I.D., Celgard® X-20 400 μm I.D. and Nylon 6 600 μm I.D. fibers, respectively. The hollow fiber dimensions and membrane porosities were supplied by the manufacturer. In the case of the silicone coated fibers, the coating thickness was estimated experimentally. The diffusivity of benzoic acid in decanol was estimated using the Wilke-Chang Equation. The diffusivity of benzoic acid in water was taken from Reid et al., Properties of Gases and Liquids, McGraw Hill Book Co., New York, 1977. […]
Aqueous phase benzoic acid concentration was analyzed by a Hewlett-Packard HPLC model 1090, using a Hypersil ODS C-18 reverse phase column. […] The distribution coefficient of benzoic acid between decanol and water was determined experimentally.

A short description of data set [3]: In vitro release from microporous hollow fibers into stirred water bath. Format: physicochemical. As to conditions: 1 μm silicone-coated 240 μm Celgard fibers (with and without wax coating), octanol; experimental vs predicted for uncoated fibers. The procedure: Hollow fibers prepared as such may then be assembled in any fashion intended for controlled release purposes. Preliminary testing of the release kinetics of a selected agent is carried out by immersing a length of the hollow fiber with sealed ends in a stirred water bath and measuring the concentration of the agent in the water bath as it increased with time.
A coating on the outer surface of the fiber provides additional resistance to mass transfer. […] The controlled release of benzoic acid using silicone-coatedhollow fibers (with and without an additional wax coating) and octanol is shown in FIGS. 4A and 4B. For both Figures, the predicted results are based on a 240 μm uncoated fiber with the same membrane thickness, porosity and tortuosity. In FIG. 4A, a 240 μm Celgard® fiber was coated with a 1 μm silicone coating. In FIG. 4B, a 240 μm Celgard® fiber was coated with a 1 μm silicone coating, and an additional wax coating. In both experiments, the solvent was octanol and the diffusing species, benzoic acid.
Aqueous phase benzoic acid concentration was analyzed by a Hewlett-Packard HPLC model 1090, using a Hypersil ODS C-18 reverse phase column. A 40% acetonitrile -60% water (w/w) carrier and UV detector at 254 nm were used. The samples were injected manually into a […] sample loop. […] The distribution coefficient of benzoic acid between decanol and water was determined experimentally. […]

For data set [4] the following is noted: from Reid et al., 1977, p. 576; cited from earlier work.

As to `Cn1c(=O)c2[nH]cnc2n(C)c1=O` [theophylline], the release kinetics entry in data set [1] is on record as “zero order release kinetics”.
Take `O=C(O)c1ccccc1` [benzoic acid]: the “distribution coefficient (m), ratio of equilibrium solute concentration in organic solvent over that in water” value in data set [2] is on record as ~50. Moreover, the “effect of fiber coating on time to approach steady state” value in data set [3] is “increases the time required for the system to approach steady state”. Moreover, in data set [4], the “diffusion coefficient in water” value is 1.2 × 10^-5 cm^2 /s. The release kinetics entry in data set [1] is on record as “zero order release kinetics”.
